Reference: ChEMBL document CHEMBL1201862, “PubChem BioAssay data set” (2004)
Active and inactive are the calls of the source.

Legend:
[1] = biological target: T1, Rac GTPase-activating protein 1 (Homo sapiens, UniProt Q9H0H5); test: MgcRacGAP GTPase-activating activity inhibitors, confirmation, biochemical, ADP Hunter fluorescence, primary and confirmatory (AID 624330); assay type: functional
T1 sequence (Q9H0H5 whole entry): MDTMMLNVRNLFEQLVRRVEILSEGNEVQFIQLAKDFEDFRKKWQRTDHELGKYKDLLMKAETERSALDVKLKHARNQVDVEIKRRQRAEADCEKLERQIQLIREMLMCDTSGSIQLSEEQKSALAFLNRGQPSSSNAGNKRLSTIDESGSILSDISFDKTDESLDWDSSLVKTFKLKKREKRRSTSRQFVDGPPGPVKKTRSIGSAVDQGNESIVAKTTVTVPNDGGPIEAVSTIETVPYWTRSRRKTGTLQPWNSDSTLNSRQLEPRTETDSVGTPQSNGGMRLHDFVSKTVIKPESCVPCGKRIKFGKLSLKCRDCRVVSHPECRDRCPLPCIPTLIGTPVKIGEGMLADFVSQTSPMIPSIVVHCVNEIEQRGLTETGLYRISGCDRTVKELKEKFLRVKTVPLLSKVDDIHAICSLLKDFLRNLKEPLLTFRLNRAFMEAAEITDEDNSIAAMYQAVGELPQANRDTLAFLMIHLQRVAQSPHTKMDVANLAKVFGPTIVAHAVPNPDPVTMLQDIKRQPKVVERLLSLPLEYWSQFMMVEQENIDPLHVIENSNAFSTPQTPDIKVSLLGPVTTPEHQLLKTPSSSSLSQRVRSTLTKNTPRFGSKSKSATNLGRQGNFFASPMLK

INS1 = test: beta cell apoptosis inhibitors, cytokine rescue, dose response, luminescence, retest (AID 449756); assay type: functional, cell-based; settings: Rattus norvegicus;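 note: cell death triggered by IL-1 beta plus TNF-alpha plus IFN-gamma mixture; protective hits raise ATP signal compared with cytokine alone wells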
[2] = inhibitors of intracellular T. cruzi replication, confirmation, NIH3T3 host cells, beta-gal luminescence (AID 2044); assay type: functional, cell-based;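 note: intracellular parasites grown in NIH/3T3 mouse fibroblasts as host cells; luminescent beta-galactosidase reporter signal from transgenic T. cruzi replicating inside host cells; inhibitors lower the luminescence signal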
[3] = cytotoxicity toward NIH3T3 fibroblasts, dose response, counter-screen, cell-based, ATP luminescence, mouse fibroblasts (AID 2010); assay type: functional;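 note: cells exposed to compound for about 90 hours before reading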
Cytochrome P450 3A4 = Cytochrome P450 3A4 (Homo sapiens, UniProt P08684);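 note: CYP3A4 tested as one member of a cytochrome P450 panel screen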
Sequence of Cytochrome P450 3A4 (P08684 whole entry): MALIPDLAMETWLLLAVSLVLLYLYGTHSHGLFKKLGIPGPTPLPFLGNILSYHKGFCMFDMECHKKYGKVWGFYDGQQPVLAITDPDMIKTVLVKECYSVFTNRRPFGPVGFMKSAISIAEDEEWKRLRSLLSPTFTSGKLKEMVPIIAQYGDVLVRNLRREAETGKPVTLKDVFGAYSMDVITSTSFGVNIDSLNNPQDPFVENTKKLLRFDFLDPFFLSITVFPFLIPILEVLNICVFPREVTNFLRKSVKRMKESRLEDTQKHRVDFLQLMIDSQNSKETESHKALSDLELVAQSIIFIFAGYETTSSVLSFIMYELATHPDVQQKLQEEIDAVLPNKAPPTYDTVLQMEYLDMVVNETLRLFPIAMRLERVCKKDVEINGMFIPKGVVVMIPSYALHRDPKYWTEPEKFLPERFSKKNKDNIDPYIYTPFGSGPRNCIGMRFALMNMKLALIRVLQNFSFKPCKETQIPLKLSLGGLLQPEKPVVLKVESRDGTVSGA

[4] = biological target: T2, Corticotropin-releasing factor receptor 2/Corticotropin-releasing factor-binding protein (Homo sapiens, UniProt P24387+Q13324); test: activators of CRF receptor 2 with binding protein – uHTS hits, confirmation (AID 602473); assay type: functional; settings: read-out: EC50_Mean
T2 sequence (Q13324 whole entry): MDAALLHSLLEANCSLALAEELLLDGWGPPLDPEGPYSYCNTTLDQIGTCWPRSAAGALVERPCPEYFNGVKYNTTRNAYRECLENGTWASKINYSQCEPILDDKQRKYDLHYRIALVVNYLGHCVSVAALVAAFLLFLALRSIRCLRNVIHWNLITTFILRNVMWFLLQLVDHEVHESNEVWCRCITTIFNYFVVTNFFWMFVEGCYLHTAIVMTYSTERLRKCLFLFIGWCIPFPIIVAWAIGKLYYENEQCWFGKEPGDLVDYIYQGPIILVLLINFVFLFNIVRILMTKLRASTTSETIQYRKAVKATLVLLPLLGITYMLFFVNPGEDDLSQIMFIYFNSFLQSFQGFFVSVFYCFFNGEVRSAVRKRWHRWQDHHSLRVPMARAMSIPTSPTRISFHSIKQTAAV
T2 sequence (P24387 whole entry): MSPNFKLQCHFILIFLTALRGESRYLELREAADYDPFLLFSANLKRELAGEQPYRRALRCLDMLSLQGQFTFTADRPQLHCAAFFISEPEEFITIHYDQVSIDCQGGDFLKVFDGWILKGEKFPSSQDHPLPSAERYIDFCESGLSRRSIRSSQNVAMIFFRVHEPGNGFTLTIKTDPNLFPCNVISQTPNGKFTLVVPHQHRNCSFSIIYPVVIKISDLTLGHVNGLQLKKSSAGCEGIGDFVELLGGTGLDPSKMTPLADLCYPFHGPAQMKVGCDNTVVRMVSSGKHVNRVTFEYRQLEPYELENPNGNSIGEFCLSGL

Cytochrome P450 2D6 = Cytochrome P450 2D6 (Homo sapiens, UniProt P10635);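 note: CYP2D6 member of a cytochrome P450 panel assay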
Sequence of Cytochrome P450 2D6 (P10635 whole entry): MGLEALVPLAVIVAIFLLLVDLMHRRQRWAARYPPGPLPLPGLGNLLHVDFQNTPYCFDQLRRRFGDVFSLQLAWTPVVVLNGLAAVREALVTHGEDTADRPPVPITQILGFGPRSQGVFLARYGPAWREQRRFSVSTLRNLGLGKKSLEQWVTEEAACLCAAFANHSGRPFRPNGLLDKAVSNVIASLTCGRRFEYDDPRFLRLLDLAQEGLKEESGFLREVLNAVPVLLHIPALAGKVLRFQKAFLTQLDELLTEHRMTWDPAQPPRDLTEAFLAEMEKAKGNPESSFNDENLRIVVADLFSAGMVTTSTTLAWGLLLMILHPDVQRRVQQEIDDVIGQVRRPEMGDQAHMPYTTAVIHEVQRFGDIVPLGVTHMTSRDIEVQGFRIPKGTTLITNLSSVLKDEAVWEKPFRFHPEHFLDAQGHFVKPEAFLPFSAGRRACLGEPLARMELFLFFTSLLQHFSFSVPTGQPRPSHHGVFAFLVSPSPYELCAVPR

Cytochrome P450 2C19 = Cytochrome P450 2C19 (Homo sapiens, UniProt P33261); test: Cytochrome panel assay with activity outcomes. Panel member name: p450-cyp2c19 Compounds with AC50 equal or less than 10 uM are considered active; assay type: functional
Sequence of Cytochrome P450 2C19 (P33261 whole entry): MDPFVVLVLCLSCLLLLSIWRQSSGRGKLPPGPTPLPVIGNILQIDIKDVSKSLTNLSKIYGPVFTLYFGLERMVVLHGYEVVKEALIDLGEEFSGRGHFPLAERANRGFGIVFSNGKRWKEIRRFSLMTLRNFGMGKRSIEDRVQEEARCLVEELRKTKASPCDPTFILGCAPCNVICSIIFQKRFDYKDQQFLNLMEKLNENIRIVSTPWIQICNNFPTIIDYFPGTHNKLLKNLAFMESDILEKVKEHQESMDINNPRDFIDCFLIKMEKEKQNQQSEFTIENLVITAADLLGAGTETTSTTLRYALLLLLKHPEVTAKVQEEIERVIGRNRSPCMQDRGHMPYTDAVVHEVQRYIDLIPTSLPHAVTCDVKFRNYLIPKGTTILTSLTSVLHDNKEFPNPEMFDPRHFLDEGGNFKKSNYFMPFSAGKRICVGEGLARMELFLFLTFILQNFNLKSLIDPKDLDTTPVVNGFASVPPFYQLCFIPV

COc1cc(CN2CCC(C(=O)NC3CCCC3)CC2)ccc1O
IC50 [1]: 133 µM (active)

CN1/C(=C\C(S)=Nc2ccccc2)C(C)(C)c2ccccc21
AC50 (INS1): 8.05 µM (active)

COc1ccc(C(=O)CCC(=O)Nc2cc(Cl)c(O)c(Cl)c2)cc1
IC50 [1]: 118 µM (active)

C/C(Cn1nnc([N+](=O)[O-])n1)=N\NC(=O)c1ccccc1Cl
AC50 (INS1): 10.5 µM (active)
EC50 [2]: 0.47 µM (active)
EC50 [3]: > 60 µM (not active)

Cn1c(=O)c2nc(S)n(Cc3ccccc3)c2n(C)c1=O
IC50 [1]: 19.5 µM (active)

COc1ccc(-c2c[n+](-c3ccc(OC)cc3)c3n2-c2ccccc2CC3)cc1
AC50 (INS1): 0.786 µM (active)

C=CCN1C(=O)CS/C1=N/c1ccc(O)cc1
IC50 [1]: 25.8 µM (active)

c1ccc(Nc2nc(-c3ccncc3)cs2)cc1
EC50 [2]: 0.544 µM (active)
EC50 [3]: > 60 µM (not active)

O=C(Oc1ccc2c(c1)OCO2)c1ccncc1
IC50 [1]: 50.5 µM (active)

CCCNC(=O)c1ccc(N2CCC3(CC2)CC(c2cccc(Br)c2)=NO3)c(NC(=O)c2ccccc2)c1
EC50 [2]: 2.5 µM (active)
EC50 [3]: > 60 µM (not active)

Cc1c(Cl)cccc1NC(=O)CCCn1cnc([N+](=O)[O-])n1
EC50 [2]: 0.131 µM (active)
EC50 [3]: > 60 µM (not active)

CCNc1ncc2nc(-c3cc(F)cc(F)c3)c(=O)n(-c3ccccc3)c2n1
AC50 (Cytochrome P450 3A4): 10 µM (inconclusive)

C=CCN1C(c2cccc(C(F)(F)F)c2)=CS/C1=C(/C#N)c1nnc(N2CCOCC2)n1-c1ccccc1
EC50 [4]: > 53 µM (inactive)

C#CCCCO/N=C1/[C@H]2O[C@@H]2[C@@H](O)[C@H]2[C@H]1CCn1c(=O)n([C@@H](CC)c3ccccc3)c(=O)n12
AC50 (Cytochrome P450 3A4): 3.98 µM (inconclusive)

CCc1nnc(NC(=O)C2Cc3ccccc3CN2S(=O)(=O)c2ccc(C)cc2)s1 (stereo not drawn)
AC50 (Cytochrome P450 2D6): 15.8 µM (inconclusive)

Brc1csc(/C=N\c2ccc3c(c2)OCCOCCOCCOCCO3)c1
IC50 [1]: 75.2 µM (active)

CCOC(=O)C1(CC2CCCCO2)CCN(Cc2cc3ccccc3[nH]2)CC1 (stereo not drawn)
EC50 [4]: 7.87 µM (active)

Clc1ccc(-c2nc3ncccn3c2Nc2ccc3c(c2)OCCO3)cc1
AC50 (Cytochrome P450 2C19; read-out: AC50): 7.08 µM (inconclusive)
AC50 (Cytochrome P450 2D6): 31.6 µM (inconclusive)

CN1CCc2c(sc(/N=C/c3cccs3)c2C(N)=O)C1
EC50 [4]: > 53 µM (inactive)

Clc1ccc(CNc2ccc(N3CCN(Cc4ccccc4)CC3)cc2)cc1
IC50 [1]: 41.4 µM (active)

Cc1ccc(S(=O)(=O)/C=C\C#N)cc1
AC50 (Cytochrome P450 3A4): 39.8 µM (inconclusive)

COc1ccc(NC2CCCN(C(=O)CCN3Cc4ccccc4C3=O)C2)cc1 (stereo not drawn)
IC50 [1]: 65.1 µM (active)

COc1cccc(C(=O)Oc2c(Br)cc(Br)cc2/C=N/NC(=O)c2cc(C)[nH]n2)c1
AC50 (INS1): 3.11 µM (active)
EC50 [2]: 0.942 µM (active)
EC50 [3]: 8.01 µM (active)

N#C/C(=C(/O)COC(=O)c1ccccc1O)c1nc2ccccc2s1
EC50 [4]: > 53 µM (inactive)

COc1cccc([C@@H]2Oc3ccc(OC)cc3/C(=N/O[C@@H](C)CN3CCCCc4nc(C)c(C)cc43)[C@@H]2O)c1
AC50 (Cytochrome P450 2C19; read-out: AC50): 0.0126 µM (inconclusive)
AC50 (Cytochrome P450 2D6): 3.16 µM (inconclusive)

CC1(C(=O)OCC(=O)N2c3ccccc3Sc3ccccc32)CC1(Cl)Cl (stereo not drawn)
AC50 (INS1): 37.4 µM (active)

COCCNc1ncnc2ccc(-c3ccc(N(C)C)cc3)cc12
AC50 (Cytochrome P450 2C19; read-out: AC50): 25.1 µM (inconclusive)
AC50 (Cytochrome P450 2D6): 20 µM (inconclusive)

CCCCOC(=O)Nc1nnc(C(C)C)s1
EC50 [2]: 1.26 µM (active)
EC50 [3]: 12.9 µM (active)

COc1ccc(-c2cc(C(=O)Nc3nc4c(C)cccc4s3)c3ccccc3n2)cc1OC
AC50 (Cytochrome P450 3A4): 11.2 µM (inconclusive)

Clc1ccc(C2=CCC[C@H]3CC[C@@H]2N3)cn1
AC50 (Cytochrome P450 3A4): 39.8 µM (inconclusive)

COc1ccccc1C1NC=C([N+](=O)[O-])C=C1[N+](=O)[O-] (stereo not drawn)
EC50 [2]: 1.73 µM (active)
EC50 [3]: > 60 µM (not active)

O=C1N(Cc2cccc(Cl)c2)C[C@@H]2C[C@@H](c3c[nH]c4ccccc34)N3CCC[C@@]123
EC50 [2]: 2 µM (active)
EC50 [3]: > 60 µM (inconclusive)

Cc1ccc(SCCCn2cnc3ccccc3c2=O)cc1
AC50 (Cytochrome P450 2D6): 1 µM (inconclusive)

Cc1cc(NC(=O)c2cccc(F)c2)no1
AC50 (Cytochrome P450 2C19; read-out: AC50): 31.6 µM (inconclusive)

C=CCNC(=O)c1csc(-c2ccccc2)n1
AC50 (Cytochrome P450 3A4): 28.2 µM (inconclusive)

CC(C)(C)c1ccc(C(=O)NCCC(=O)NCc2ccco2)cc1
AC50 (Cytochrome P450 2C19; read-out: AC50): 7.94 µM (inconclusive)
AC50 (Cytochrome P450 2D6): 22.4 µM (inconclusive)

CCOC(=O)C1CCN(C(=O)C2CCN(S(=O)(=O)N3CCCC3)CC2)CC1
AC50 (Cytochrome P450 2C19): inconclusive

CCc1cccc2nc3c(c([Si](C)(C)C)c12)Cn1c-3cccc1=O
AC50 (Cytochrome P450 2C19; read-out: AC50): 39.8 µM (inconclusive)
AC50 (Cytochrome P450 2D6): 39.8 µM (inconclusive)

Cc1ccc(S(=O)(=O)NCCn2cnc([N+](=O)[O-])n2)cc1
EC50 [2]: 0.116 µM (active)
EC50 [3]: > 60 µM (not active)

c1csc(CNc2cc(-c3ccoc3)ncn2)c1
AC50 (Cytochrome P450 3A4): 25.1 µM (inconclusive)

CCCNC1=NC(=O)N(C)C(=O)/C1=N/O
AC50 (Cytochrome P450 2C19; read-out: AC50): 28.2 µM (inconclusive)
AC50 (Cytochrome P450 2D6): 39.8 µM (inconclusive)

CCOC(=O)C1=C(N)Oc2ccc3ccccc3c2C1c1cccnc1 (stereo not drawn)
EC50 [2]: 0.243 µM (active)
EC50 [3]: > 60 µM (not active)

c1ccc(C2=NN[C@@H]3c4ccccc4-c4ccccc4N3C2)cc1
AC50 (Cytochrome P450 3A4): 3.16 µM (inconclusive)

C[C@@]1(C(=O)O)NCCc2cc(O)c(O)cc21
AC50 (Cytochrome P450 3A4): 31.6 µM (inconclusive)

Cc1cccc(C(=O)NCCCN(C)CCCNC(=O)c2cccc(C)c2)c1
EC50 [2]: 0.894 µM (active)
EC50 [3]: > 60 µM (not active)

COc1ccc(NC(=O)N2CC3(CCN(C(C)=O)CC3)C2)cc1
AC50 (Cytochrome P450 2D6): 12.6 µM (inconclusive)

O=S(=O)(NCc1cc(-c2ccc(Cl)cc2)no1)c1ccc(Cl)cc1
AC50 (Cytochrome P450 3A4): 25.1 µM (inconclusive)

Cc1ccc(C(=O)NC(=S)NNC(=O)c2ccc([N+](=O)[O-])cc2)cc1
EC50 [4]: 4.2 µM (active)

O=C1/C(=C\c2ccccn2)SC(=S)N1Nc1ncc(C(F)(F)F)cc1Cl
AC50 (Cytochrome P450 2D6): 17.8 µM (inconclusive)

CCc1cc2c(nc1CC)CCN(CC/C(C)=N/O[C@@H](C)CN1CCCc3nc(C)c(C)cc31)C2
AC50 (Cytochrome P450 3A4): 3.16 µM (inconclusive)

COc1ccccc1CN1CCCC2(CCNCC2)C1
AC50 (Cytochrome P450 2D6): 20 µM (inconclusive)

CSCCC(NC(=O)c1ccco1)C(=O)OC(C)C(=O)NC(=O)NC1CCCCC1 (stereo not drawn)
EC50 [4]: 0.832 µM (active)

CC(C)(CNc1ccc(S(=O)(=O)C(F)(F)F)cc1[N+](=O)[O-])N1CCOCC1
EC50 [2]: 2.42 µM (active)
EC50 [3]: 4.83 µM (active)

Ic1ccc(N2CCN(Cc3c[nH]c4ncccc34)CC2)cc1
AC50 (Cytochrome P450 3A4): 39.8 µM (inconclusive)

O=[As](O)(O)c1ccc2nc3cc([As](=O)(O)O)ccc3nc2c1
AC50 (Cytochrome P450 2C19): inconclusive

FC(F)(F)c1n[nH]c(SCc2ccc(Cl)cc2)n1
AC50 (Cytochrome P450 2C19; read-out: AC50): 2.51 µM (inconclusive)

CCOC(=O)C1CCN(Cc2cccc(Oc3ccccc3)c2)CC1
IC50 [1]: 342 µM (active)

Cc1ccc(C(=O)NC(=S)Nc2ccc(CN3CCCCC3)cc2)c(C)c1
EC50 [2]: 0.98 µM (active)
EC50 [3]: 15.8 µM (active)

Cc1ccc(N(C(=O)C(F)(F)F)C(C(=O)NC2CCCCC2)c2cccs2)cc1C (stereo not drawn)
AC50 (Cytochrome P450 2C19; read-out: AC50): 0.0355 µM (inconclusive)

CCNc1ncc2nc(CCc3ccccc3)c(=O)n(C[C@H]3CCCO3)c2n1
AC50 (Cytochrome P450 2C19; read-out: AC50): 39.8 µM (inconclusive)

COc1ccccc1/C=N/OCc1cc(C(C)=O)ccc1OC
AC50 (INS1): 44.6 µM (active)

CCC(=O)Nc1ccc2c(c1)C(=O)c1ccccc1C2=O
AC50 (Cytochrome P450 2C19; read-out: AC50): 7.94 µM (inconclusive)
